The values that follow come from ChEMBL document CHEMBL1649420, “Identifying chelators for metalloprotein inhibitors using a fragment-based approach” (J Med Chem, 2011).

In test [1] the target is T1, Nitric oxide synthase, inducible (Mus musculus) (UniProt P29477).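 Also: recombinant enzyme, activity read out colorimetrically after 40 min.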
T1 sequence (whole entry): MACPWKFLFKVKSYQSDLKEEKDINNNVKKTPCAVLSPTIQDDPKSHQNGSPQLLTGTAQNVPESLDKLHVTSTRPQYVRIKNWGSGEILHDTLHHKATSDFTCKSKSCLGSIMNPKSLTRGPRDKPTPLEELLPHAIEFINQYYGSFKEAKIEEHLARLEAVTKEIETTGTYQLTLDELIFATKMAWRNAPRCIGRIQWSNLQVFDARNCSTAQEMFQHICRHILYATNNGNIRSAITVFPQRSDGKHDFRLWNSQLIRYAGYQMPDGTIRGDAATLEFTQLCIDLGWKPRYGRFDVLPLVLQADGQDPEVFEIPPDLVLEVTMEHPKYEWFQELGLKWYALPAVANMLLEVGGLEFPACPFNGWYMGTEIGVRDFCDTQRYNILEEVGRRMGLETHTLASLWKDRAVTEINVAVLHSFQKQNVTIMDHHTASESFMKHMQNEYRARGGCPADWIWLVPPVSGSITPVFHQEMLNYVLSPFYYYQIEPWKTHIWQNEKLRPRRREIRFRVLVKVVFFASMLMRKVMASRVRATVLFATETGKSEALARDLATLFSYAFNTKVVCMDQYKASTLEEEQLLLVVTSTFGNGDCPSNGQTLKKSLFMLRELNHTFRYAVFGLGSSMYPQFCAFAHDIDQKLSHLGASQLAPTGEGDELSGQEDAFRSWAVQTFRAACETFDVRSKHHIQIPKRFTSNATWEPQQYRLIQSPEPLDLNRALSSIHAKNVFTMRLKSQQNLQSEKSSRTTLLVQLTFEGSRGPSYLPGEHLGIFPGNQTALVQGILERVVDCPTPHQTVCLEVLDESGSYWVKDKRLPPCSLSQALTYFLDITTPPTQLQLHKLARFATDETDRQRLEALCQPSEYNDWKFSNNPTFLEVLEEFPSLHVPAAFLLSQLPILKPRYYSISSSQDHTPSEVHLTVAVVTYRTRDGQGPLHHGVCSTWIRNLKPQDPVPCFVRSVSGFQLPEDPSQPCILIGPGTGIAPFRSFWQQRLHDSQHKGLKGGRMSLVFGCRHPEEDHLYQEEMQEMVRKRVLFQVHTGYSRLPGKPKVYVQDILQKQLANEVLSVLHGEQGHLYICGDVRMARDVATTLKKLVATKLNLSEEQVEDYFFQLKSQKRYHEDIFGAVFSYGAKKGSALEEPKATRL
Particulars: at 1 mM.

Test [2] has as its target T2, Lethal factor (Bacillus anthracis) (UniProt P15917).
T2 sequence (whole entry): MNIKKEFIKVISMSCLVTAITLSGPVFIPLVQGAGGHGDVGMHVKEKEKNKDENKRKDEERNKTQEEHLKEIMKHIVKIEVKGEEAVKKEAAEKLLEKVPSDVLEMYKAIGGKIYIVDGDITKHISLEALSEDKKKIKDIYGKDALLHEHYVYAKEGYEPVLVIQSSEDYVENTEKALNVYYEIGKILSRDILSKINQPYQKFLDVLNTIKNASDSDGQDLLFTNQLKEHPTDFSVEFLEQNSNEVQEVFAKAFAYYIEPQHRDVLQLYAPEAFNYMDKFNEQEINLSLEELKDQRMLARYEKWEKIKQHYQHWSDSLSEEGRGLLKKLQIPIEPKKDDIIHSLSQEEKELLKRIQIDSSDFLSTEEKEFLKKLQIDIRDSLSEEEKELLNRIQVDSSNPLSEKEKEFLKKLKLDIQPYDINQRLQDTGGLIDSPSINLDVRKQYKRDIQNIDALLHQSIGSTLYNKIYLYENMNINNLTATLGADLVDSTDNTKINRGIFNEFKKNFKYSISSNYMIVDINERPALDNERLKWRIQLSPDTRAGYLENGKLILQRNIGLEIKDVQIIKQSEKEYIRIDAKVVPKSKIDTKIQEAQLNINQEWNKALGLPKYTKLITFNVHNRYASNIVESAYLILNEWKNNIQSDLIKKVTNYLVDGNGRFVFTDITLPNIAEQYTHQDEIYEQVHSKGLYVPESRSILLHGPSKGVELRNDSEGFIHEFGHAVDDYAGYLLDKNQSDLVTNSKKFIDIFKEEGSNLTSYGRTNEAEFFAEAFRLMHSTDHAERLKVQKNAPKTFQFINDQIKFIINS
Particulars: at 1 mM.

Test [3] deals with T3, Interstitial collagenase (Homo sapiens) (UniProt P03956).
T3 sequence (whole entry): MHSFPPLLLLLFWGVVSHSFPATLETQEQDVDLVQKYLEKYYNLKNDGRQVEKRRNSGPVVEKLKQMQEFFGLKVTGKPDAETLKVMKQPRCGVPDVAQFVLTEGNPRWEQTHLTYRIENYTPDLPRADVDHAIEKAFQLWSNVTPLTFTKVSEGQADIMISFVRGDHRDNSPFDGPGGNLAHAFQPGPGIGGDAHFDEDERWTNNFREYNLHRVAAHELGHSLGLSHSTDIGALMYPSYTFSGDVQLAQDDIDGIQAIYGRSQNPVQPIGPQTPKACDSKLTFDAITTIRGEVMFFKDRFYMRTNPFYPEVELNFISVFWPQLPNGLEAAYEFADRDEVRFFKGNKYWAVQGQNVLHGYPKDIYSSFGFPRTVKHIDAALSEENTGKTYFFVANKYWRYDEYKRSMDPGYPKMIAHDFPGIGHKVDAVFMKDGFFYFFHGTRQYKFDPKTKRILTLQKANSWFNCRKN
Particulars: at 1 mM.

For test [4], the target named is 72 kDa type IV collagenase (Homo sapiens, UniProt P08253). The settings on record: at 1 mM.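 Also: recombinant human enzyme, inhibition read after a 30 min incubation.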
The target in test [5] is Stromelysin-1 (Homo sapiens) (UniProt P08254). The settings on record: at 1 mM.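 Also: recombinant enzyme, inhibition read after a 30 min incubation.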
For test [6], the target named is Matrix metalloproteinase-9 (Homo sapiens) (UniProt P14780). Particulars: at 1 mM.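 Also: recombinant human MMP9, activity read after 30 min.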
In test [7] the target is Neutrophil collagenase (Homo sapiens) (UniProt P22894). The settings on record: at 1 mM.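 Also: recombinant human MMP8 enzyme, percent inhibition read after 30 min.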
For test [8], the target named is T4, Tyrosinase (Agaricus bisporus) (UniProt O42713).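 Also: inhibition measured at 10 min.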
T4 sequence (whole entry): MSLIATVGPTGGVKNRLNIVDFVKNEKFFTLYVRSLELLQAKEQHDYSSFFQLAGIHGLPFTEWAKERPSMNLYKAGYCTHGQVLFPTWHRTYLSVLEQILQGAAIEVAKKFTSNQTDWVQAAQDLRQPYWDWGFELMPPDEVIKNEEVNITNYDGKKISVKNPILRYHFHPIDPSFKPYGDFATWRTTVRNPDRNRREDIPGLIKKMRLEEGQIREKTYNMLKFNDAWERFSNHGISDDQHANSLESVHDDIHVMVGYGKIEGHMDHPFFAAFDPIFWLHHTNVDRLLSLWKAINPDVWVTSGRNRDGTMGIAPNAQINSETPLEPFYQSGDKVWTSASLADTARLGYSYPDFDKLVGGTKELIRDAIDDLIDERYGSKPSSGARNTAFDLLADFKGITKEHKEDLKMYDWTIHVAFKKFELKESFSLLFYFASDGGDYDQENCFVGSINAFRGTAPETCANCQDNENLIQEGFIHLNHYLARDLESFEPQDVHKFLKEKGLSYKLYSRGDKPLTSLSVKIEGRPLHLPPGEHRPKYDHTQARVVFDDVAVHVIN
The settings on record: at 1 mM.

Test [9] concerns the target T5, Polyunsaturated fatty acid 5-lipoxygenase (Homo sapiens) (UniProt P09917).
T5 sequence (whole entry): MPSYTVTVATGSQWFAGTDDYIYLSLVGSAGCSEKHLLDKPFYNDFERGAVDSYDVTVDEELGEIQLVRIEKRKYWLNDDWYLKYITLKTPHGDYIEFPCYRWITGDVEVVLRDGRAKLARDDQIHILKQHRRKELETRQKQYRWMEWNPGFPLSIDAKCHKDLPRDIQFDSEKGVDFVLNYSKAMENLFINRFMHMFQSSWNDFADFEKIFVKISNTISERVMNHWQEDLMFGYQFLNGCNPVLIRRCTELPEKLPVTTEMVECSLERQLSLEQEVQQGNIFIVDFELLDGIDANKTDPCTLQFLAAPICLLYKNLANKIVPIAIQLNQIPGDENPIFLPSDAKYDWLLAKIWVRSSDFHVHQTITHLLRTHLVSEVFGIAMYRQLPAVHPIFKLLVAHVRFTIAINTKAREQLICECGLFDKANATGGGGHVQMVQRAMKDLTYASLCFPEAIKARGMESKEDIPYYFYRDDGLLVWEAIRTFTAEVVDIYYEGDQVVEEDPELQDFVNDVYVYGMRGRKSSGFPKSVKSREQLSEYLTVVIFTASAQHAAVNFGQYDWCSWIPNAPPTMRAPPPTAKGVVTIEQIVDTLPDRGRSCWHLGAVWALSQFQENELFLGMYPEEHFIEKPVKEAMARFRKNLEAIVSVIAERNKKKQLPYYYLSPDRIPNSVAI
Briefly: Inhibition of human recombinant 5-lipoxygenase at 1 mM after 10 mins by fluorescence assay.

Chain of Matrix metalloproteinase-9 (Homo sapiens) (P14780 whole entry): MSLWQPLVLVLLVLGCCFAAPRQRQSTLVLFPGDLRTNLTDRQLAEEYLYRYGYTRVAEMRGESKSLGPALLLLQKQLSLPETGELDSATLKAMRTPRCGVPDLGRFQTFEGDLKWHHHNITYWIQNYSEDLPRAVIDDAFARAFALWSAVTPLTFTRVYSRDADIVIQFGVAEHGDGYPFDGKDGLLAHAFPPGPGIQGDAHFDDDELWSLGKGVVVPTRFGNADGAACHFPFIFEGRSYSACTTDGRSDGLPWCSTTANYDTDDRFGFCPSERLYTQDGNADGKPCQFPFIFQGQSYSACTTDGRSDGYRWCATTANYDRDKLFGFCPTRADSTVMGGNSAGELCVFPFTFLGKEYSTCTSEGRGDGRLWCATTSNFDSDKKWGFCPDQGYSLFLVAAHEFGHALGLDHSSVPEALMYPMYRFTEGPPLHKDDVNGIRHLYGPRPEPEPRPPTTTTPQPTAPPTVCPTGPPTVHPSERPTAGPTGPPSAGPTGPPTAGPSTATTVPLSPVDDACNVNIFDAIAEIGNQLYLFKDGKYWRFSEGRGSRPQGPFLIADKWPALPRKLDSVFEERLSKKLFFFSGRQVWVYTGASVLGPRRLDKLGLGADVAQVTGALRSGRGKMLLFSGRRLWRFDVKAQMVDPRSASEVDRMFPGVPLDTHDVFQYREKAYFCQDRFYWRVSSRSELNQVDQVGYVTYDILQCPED
Chain of Neutrophil collagenase (Homo sapiens) (P22894 101-467 limits assumed): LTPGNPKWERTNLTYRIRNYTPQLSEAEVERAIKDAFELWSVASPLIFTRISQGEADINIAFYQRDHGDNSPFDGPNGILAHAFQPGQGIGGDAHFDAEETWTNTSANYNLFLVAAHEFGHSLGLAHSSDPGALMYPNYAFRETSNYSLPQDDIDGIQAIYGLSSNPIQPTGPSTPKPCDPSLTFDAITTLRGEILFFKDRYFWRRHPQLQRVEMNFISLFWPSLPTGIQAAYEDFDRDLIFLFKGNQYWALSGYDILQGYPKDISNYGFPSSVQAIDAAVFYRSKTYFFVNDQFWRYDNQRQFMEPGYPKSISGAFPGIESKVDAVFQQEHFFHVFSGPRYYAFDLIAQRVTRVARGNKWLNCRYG
Chain of 72 kDa type IV collagenase (P08253 110-660 limits assumed): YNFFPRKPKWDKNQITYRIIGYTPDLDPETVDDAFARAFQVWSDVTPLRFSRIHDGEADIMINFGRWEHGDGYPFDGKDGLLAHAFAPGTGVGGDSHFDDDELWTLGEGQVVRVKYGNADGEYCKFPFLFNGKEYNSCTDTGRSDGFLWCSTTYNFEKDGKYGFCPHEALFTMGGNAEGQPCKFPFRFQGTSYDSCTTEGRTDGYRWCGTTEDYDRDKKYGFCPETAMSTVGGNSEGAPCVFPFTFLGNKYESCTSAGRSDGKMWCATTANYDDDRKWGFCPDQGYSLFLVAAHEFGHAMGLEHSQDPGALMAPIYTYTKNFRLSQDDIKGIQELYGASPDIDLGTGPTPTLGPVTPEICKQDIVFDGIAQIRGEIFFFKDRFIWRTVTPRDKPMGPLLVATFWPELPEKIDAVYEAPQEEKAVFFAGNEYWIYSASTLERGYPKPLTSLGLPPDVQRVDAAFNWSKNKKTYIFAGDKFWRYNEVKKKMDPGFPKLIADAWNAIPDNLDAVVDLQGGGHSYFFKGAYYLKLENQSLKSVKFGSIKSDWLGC
Chain of Stromelysin-1 (Homo sapiens) (P08254 100-477 limits assumed): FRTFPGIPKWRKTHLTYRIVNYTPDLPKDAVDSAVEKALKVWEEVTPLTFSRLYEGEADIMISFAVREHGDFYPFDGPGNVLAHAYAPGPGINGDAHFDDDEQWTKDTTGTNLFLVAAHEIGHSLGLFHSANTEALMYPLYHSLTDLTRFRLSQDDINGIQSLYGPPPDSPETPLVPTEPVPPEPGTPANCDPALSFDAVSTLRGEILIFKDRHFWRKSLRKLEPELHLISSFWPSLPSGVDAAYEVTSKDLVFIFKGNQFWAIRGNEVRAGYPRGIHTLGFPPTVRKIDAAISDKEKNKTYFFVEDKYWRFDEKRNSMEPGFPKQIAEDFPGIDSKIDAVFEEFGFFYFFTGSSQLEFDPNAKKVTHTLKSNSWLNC

With `O=C(O)c1ccc2cccc(O)c2n1`, the inhibition (usually the change of the read-out against control, counted positive when it falls) is 29% in test [1]; 89% in test [2]; 82% in test [3]; 84% in [4]; 94% in test [5]; 68% in test [6]. The inhibition was 88% in [7] and 75% in [8].
For the compound `Cc1cc(=O)c(O)c(CO)o1`, the inhibition in [1] was 9%; in [2], 14%; in [3] it was 60%; in test [4], 45%; in test [5], 47%; in [6] it was 44%. In addition, the inhibition in test [7] came to 53%; in [8], 11%.
Take `NC(=O)c1ccccc1O`: the inhibition in [1] is 14%; in [2], 0%; in [3], 21%; in test [4], -1%; in test [5], 1%; in test [6], 23%. Besides, the figures for the inhibition in test [7] and in test [8] were 24% and -8%, respectively.
Regarding `O=C(O)c1ccc(O)cc1O`, the inhibition is 16% in test [1]; 7% in test [2]; 14% in test [3]; -7% in test [4]; 3% in test [5]; -8% in [6]. Moreover, the inhibition in test [7] is -1%; in test [8] it was 91%.
In the case of `Cc1occc(=O)c1O`, the inhibition in test [1] came to 6%; in test [2], 19%; in test [3], 41%; in test [4], 38%; in test [5] it was 34%; in [6] it was 32%. The figures for the inhibition in test [7] and in [8] were 19% and -6%, respectively.
In the case of `CCc1occc(=O)c1O`, the inhibition in test [1] came out at 8%; in test [2], 25%; in test [3], 39%; in test [4], 33%; in test [5], 38%; in test [6], 28%. For the same compound, the inhibition was 34% in test [7] and -7% in test [8].
Turning to `CC(C)c1cccc(C(=O)O)c1O`, the inhibition was -3% in test [2]; 13% in test [3]; -2% in test [4]; 5% in [5]; 9% in [6]; -3% in [9]. The inhibition was 3% in [7] and 91% in test [8].
For the compound `O=C(O)c1ccc2ccccc2n1`, the inhibition in test [1] is 11%; in test [2] it was 45%; in test [3] it was 52%; in test [4], 37%; in test [5], 73%; in test [6], 37%. The inhibition in test [7] was 29%; in test [8], 58%.
Consider `CCn1ccc(=S)c(O)c1C`, for which the inhibition in test [2] stood at 60%; in test [3], 98%; in test [4], 100%; in test [5], 99%; in [6], 100%; in test [9], 96%. Further, the inhibition in test [7] came to 93%; in test [8], 100%.
`Oc1cc(O)nc(S)n1`: the inhibition in test [2] worked out at 18%; in [3], 30%; in test [4], 17%; in [5], 38%; in test [6], 15%; in [9] it was 72%. For the same compound, the inhibition in test [7] was 25%; in test [8], 99%.
For the compound `Cn1cccc(O)c1=S`, the inhibition in [2] came to 56%; in test [3], 89%; in [4], 100%; in [5], 90%; in test [6] it was 96%; in test [9], 93%. Besides, the inhibition came to 96% in test [7] and 93% in test [8].
